Measured values as given in patent US9422240B2, “Partially saturated nitrogen-containing heterocyclic compound” (TAISHO PHARMACEUTICAL CO., LTD, priority 2012, dated 2016).

Experiments:
human PHD2 [1] = biological target: T1, human PHD2 (Homo sapiens (Human), UniProt Q9GZT9); assay: Test 1: human PHD2 inhibitory activity, [14C]-2-oxoglutarate to [14C]-succinic acid radiometric assay with HIF-1α peptide; type: biochemical; details: test compound's concentration 1 μM; Test 1, [14C]-2-oxoglutarate radiometric assay; read-out: Percent inhibition (% at 1 μM)
T1 sequence (Q9GZT9 whole entry): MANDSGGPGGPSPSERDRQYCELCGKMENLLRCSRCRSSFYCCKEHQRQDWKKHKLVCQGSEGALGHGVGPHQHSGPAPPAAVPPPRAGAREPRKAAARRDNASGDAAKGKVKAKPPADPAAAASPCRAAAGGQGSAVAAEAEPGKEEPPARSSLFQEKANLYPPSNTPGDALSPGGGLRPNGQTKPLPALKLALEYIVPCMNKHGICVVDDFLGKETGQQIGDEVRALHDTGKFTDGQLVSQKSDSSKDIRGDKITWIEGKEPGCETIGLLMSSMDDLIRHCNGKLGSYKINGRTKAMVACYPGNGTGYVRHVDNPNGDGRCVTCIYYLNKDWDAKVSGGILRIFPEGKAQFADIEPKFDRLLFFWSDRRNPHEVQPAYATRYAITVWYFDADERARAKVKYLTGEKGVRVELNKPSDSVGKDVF
Method in brief: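 Lysate from HighFive insect cells expressing human PHD2 (4 μg/well) was incubated for 15 min at 37° C with a 19-residue HIF-1α peptide and [14C]-2-oxoglutarate. Unreacted 2-oxoglutarate was precipitated with DNPH and filtered off, and [14C]-succinic acid was counted. Inhibition was calculated relative to substrate-free and compound-free controls.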

human PHD2 [2] = biological target: T1, human PHD2; assay: Test 2: human PHD2 inhibitory activity, fluorescence polarization assay of HIF-1α peptide proline hydroxylation; type: biochemical; details: for inhibition at 1 µM: test compound's concentration 1 μM, Test 2, fluorescence polarization assay, read-out: Percent inhibition (% at 1 μM)
Method in brief: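 Enzyme from lysate of cells expressing human PHD2 (NM_022051), 40 ng/well, added to compound and 19-residue HIF-1α peptide substrate; 20 min at 30° C., EDTA quench. Prolyl hydroxylation detected by HIF-OH antibody binding via fluorescence polarization; inhibition relative to compound-free wells.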

SMILES	inhibition at 1 µM (human PHD2 [1]) [%]	inhibition at 1 µM (human PHD2 [2]) [%]	IC50 (human PHD2 [2]; human PHD2, fluorescence polarization assay, 20-min incubation at 30° C.) [nM]
CC1CC(O)=C(C(=O)NCC(=O)O)C(=O)N1Cc1ccc(Cl)cc1 (centres unmarked) [Ex. 1-171]	81	82	
CC1CC(O)=C(C(=O)NCC(=O)O)C(=O)N1Cc1ccc(Cl)c(Cl)c1 (centres unmarked) [Ex. 1-172]	77	79	
O=C(O)CNC(=O)C1=C(O)CCN(CCc2cccc(C(F)(F)F)c2)C1=O [Ex. 1-173]	64	78	
CC1(C)CN(Cc2ccc(C(F)(F)F)cc2)C(=O)C(C(=O)NCC(=O)O)=C1O [Ex. 1-174]	59	74	
CC1(C)C(O)=C(C(=O)NCC(=O)O)C(=O)N(Cc2ccc(C(F)(F)F)cc2)C1(C)C [Ex. 1-175]	32	56	
O=C(O)CNC(=O)C1=C(O)CCN(CCc2ccc(C(F)(F)F)cc2)C1=O [Ex. 1-176]	74	80	
CC1CC(O)=C(C(=O)NCC(=O)O)C(=O)N1Cc1ccc(-c2ccc(F)cc2)cc1 (centres unmarked) [Ex. 1-177]	93	92	
O=C(O)CNC(=O)C1=C(O)CC2(CCC2)N(Cc2ccc(-c3ccc(F)cc3)cc2)C1=O [Ex. 1-178]	81	92	
Cc1cc(CN2C(=O)C(C(=O)NCC(=O)O)=C(O)CC2(C)C)ccc1F [Ex. 1-179]	44	49	
Cc1cc(CN2C(=O)C(C(=O)NCC(=O)O)=C(O)CC2(C)C)ccc1Cl [Ex. 1-180]	54	65	
O=C(O)CNC(=O)C1=C(O)CC(Cc2ccccc2)N(Cc2ccc(C(F)(F)F)cc2)C1=O (centres unmarked) [Ex. 1-181]	73	83	
CCC1CC(O)=C(C(=O)NCC(=O)O)C(=O)N1Cc1ccc(C(F)(F)F)cc1 (centres unmarked) [Ex. 1-182]	77	71	
CCC1(CC)CC(O)=C(C(=O)NCC(=O)O)C(=O)N1Cc1ccc(C(F)(F)F)cc1 [Ex. 1-183]	39	50	
Cc1ccc(CN2C(=O)C(C(=O)NCC(=O)O)=C(O)CC2(C)C)cc1F [Ex. 1-184]	59	60	
O=C(O)CNC(=O)C1=C(O)CC(CCc2ccccc2)N(Cc2ccc(C(F)(F)F)cc2)C1=O (centres unmarked) [Ex. 1-185]	69	81	
CC1(C)CC(O)=C(C(=O)NCC(=O)O)C(=O)N1Cc1ccc(OCCCC(F)(F)F)cc1 [Ex. 1-186]	64	77	
Cc1cc(CN2C(=O)C(C(=O)NCC(=O)O)=C(O)CC2(C)C)ccc1OCCCC(F)(F)F [Ex. 1-187]	47	74	
CC1(C)CC(O)=C(C(=O)NCC(=O)O)C(=O)N1Cc1ccc(OC(CF)CF)c(Cl)c1 [Ex. 1-188]	44	63	
Cc1cc(CN2C(=O)C(C(=O)NCC(=O)O)=C(O)CC2(C)C)ccc1OC(CF)CF [Ex. 1-189]	53	60	
O=C(O)CNC(=O)C1=C(O)CCN(Cc2ccc(C(F)(F)F)c(C3CC3)c2)C1=O [Ex. 1-190]	84	85	

SMILES	inhibition at 1 µM (human PHD2 [1]) [%]	inhibition at 1 µM (human PHD2 [2]) [%]	IC50 (human PHD2 [2]; human PHD2, fluorescence polarization assay, 20-min incubation at 30° C.) [nM]
COc1cc(CN2C(=O)C(C(=O)NCC(=O)O)=C(O)CC2(C)C)ccc1C(F)(F)F [Ex. 1-191]	38	45	
CC1(C)CC(O)=C(C(=O)NCC(=O)O)C(=O)N1Cc1ccc(C(F)(F)F)c(OC(F)F)c1 [Ex. 1-192]	48	49	
COc1ccc(CN2C(=O)C(C(=O)NCC(=O)O)=C(O)CC2(C)C)c(F)c1 [Ex. 1-193]	67	57	
COc1ccc(CN2C(=O)C(C(=O)NCC(=O)O)=C(O)CC2(C)C)cc1F [Ex. 1-194]	54	57	
COc1ccc(CN2C(=O)C(C(=O)NCC(=O)O)=C(O)CC2(C)C)cc1Cl [Ex. 1-195]	52	57	
COc1ccc(CN2C(=O)C(C(=O)NCC(=O)O)=C(O)CC2(C)C)cc1C [Ex. 1-196]	41	48	
CC(C)C1CN(Cc2ccc(C(F)(F)F)cc2)C(=O)C(C(=O)NCC(=O)O)=C1O (centres unmarked) [Ex. 1-197]	66	78	
CC1(C)CC(O)=C(C(=O)NCC(=O)O)C(=O)N1Cc1ccc(OCC2CC2)cc1 [Ex. 1-198]	70	79	
Cc1cc(CN2C(=O)C(C(=O)NCC(=O)O)=C(O)CC2(C)C)ccc1OCC1CC1 [Ex. 1-199]	65	75	
O=C(O)CNC(=O)C1=C(O)C2(CC2)CN(Cc2ccc(-c3ccccc3)cc2)C1=O [Ex. 1-200]	98	99	
CC1(C)CC(O)=C(C(=O)NCC(=O)O)C(=O)N1Cc1ccc(OCCCC(F)(F)F)c(F)c1 [Ex. 1-201]	67	73	
Cc1ccc(CN2C(=O)C(C(=O)NCC(=O)O)=C(O)CC2(C)C)cc1Cl [Ex. 1-202]	58	69	
CC1(C)CC(O)=C(C(=O)NCC(=O)O)C(=O)N1Cc1ccc(C2CC2)cc1 [Ex. 1-203]	61	69	
CC1(C)CC(O)=C(C(=O)NCC(=O)O)C(=O)N1Cc1ccc(OCC2CC2)c(F)c1 [Ex. 1-204]	69	79	
Cc1ccc(Oc2ccc(CN3C(=O)C(C(=O)NCC(=O)O)=C(O)CC3(C)C)cn2)cc1 [Ex. 1-206]	95	93	
O=C(O)CNC(=O)C1=C(O)C2(CC2)CN(Cc2ccc(Br)cc2)C1=O [Ex. 1-207]	92	93	
O=C(O)CNC(=O)C1=C(O)C2(CC2)CN(Cc2ccc(OC(F)(F)F)cc2)C1=O [Ex. 1-208]	90	85	
CC1CC(O)=C(C(=O)NCC(=O)O)C(=O)N1C1(c2ccc(C(F)(F)F)cc2)CC1 (centres unmarked) [Ex. 1-210]	59	42	
CC1(C)CC(O)=C(C(=O)NCC(=O)O)C(=O)N1Cc1ccc(C2CCC2)cc1 [Ex. 1-211]	76	79	
O=C(O)CNC(=O)C1=C(O)CCN(Cc2ccc(C3CC3)c(C(F)(F)F)c2)C1=O [Ex. 1-212]	82	85	

SMILES	inhibition at 1 µM (human PHD2 [1]) [%]	inhibition at 1 µM (human PHD2 [2]) [%]	IC50 (human PHD2 [2]; human PHD2, fluorescence polarization assay, 20-min incubation at 30° C.) [nM]
CC1(C)CC(O)=C(C(=O)NCC(=O)O)C(=O)N1Cc1cc(-c2ccc(Cl)cc2)no1 [Ex. 1-213]	88	88	
O=C(O)CNC(=O)C1=C(O)C2(CC2)CN(Cc2ccc(C3CC3)cc2)C1=O [Ex. 1-214]	89	90	
O=C(O)CNC(=O)C1=C(O)C2(CC2)CN(Cc2ccc(Cl)cc2)C1=O [Ex. 1-215]	85	86	
CC1(C)CC(O)=C(C(=O)NCC(=O)O)C(=O)N1Cc1cc(-c2ccc(Cl)cc2)on1 [Ex. 1-216]	75	73	
CC1(C)CC(O)=C(C(=O)NCC(=O)O)C(=O)N1CC1CC(c2ccccc2)C1 (centres unmarked) [Ex. 1-217]	52	60	
CC1(C)CC(O)=C(C(=O)NCC(=O)O)C(=O)N1C[C@H]1C[C@@H](c2ccccc2)C1 [Ex. 1-218]	52	62	
O=C(O)CNC(=O)C1=C(O)CCN(C2(c3ccc(-c4ccccc4)cc3)CC2)C1=O [Ex. 1-219]	69	88	
O=C(O)CNC(=O)C1=C(O)CCN(C2CCC(Cc3ccccc3)CC2)C1=O (centres unmarked) [Ex. 1-220]	72	82	
CC1(C)CC(O)=C(C(=O)NCC(=O)O)C(=O)N1Cc1ccc(OCC(F)(F)F)cc1 [Ex. 1-221]	66	73	
O=C(O)CNC(=O)C1=C(O)CCN(Cc2ccc(OCC(F)(F)F)c(Cl)c2)C1=O [Ex. 1-222]	90	89	
O=C(O)CNC(=O)C1=C(O)CC2(CC2)N(Cc2ccc(-c3ccccc3)cc2)C1=O [Ex. 1-223]	90	96	
O=C(O)CNC(=O)C1=C(O)CC2(CC2)N(Cc2ccc(C(F)(F)F)cc2)C1=O [Ex. 1-224]	80	90	
N#Cc1ccc(Oc2ccc(CN3CCC(O)=C(C(=O)NCC(=O)O)C3=O)cn2)cc1 [Ex. 1-225]	100	98	40
CCCOc1ccc(CN2C(=O)C(C(=O)NCC(=O)O)=C(O)CC2(C)C)cc1 [Ex. 1-227]	76	75	
CC(C)Oc1ccc(CN2C(=O)C(C(=O)NCC(=O)O)=C(O)CC2(C)C)cc1 [Ex. 1-228]	71	64	
CC1(C)CC(O)=C(C(=O)NCC(=O)O)C(=O)N1C[C@H]1C[C@@H]1c1ccccc1 [Ex. 1-229]	74	60	
CC(c1ccc(-c2ccccc2)cc1)N1CCC(O)=C(C(=O)NCC(=O)O)C1=O (centres unmarked) [Ex. 1-230]	96	95	
CC(C)(c1ccc(C(F)(F)F)cc1)N1CCC(O)=C(C(=O)NCC(=O)O)C1=O [Ex. 1-231]	65	44	
CC(C)(C)COCc1ccc(CN2CCC(O)=C(C(=O)NCC(=O)O)C2=O)cc1 [Ex. 1-232]	89	91	
